The term EC50 denotes the concentration that produces a half-maximal response.

The text below walks through data of publication PMC2653189 (PLoS ONE, 2009).

Common to all, as to type: cell-based
One assay concerns MCF7. The experiment in a line: Breast cancer cell line apoptosis assay (nucleosome ELISA). The following applies: Homo sapiens, 24 hr, read-out: EC50 apoptosis induction. How it is done:
(§1) Human breast carcinoma cell lines MDA-MB-468, MDA-MB-231, MBA-MD-435 and MCF7 were kindly provided by Dr. Powel H. Brown (Breast Cancer Center, Baylor College of Medicine). Breast cancer cell line, MDA-MB-453 was kindly provided by Dr. Shou Jiang (Breast Cancer Center, Baylor College of Medicine). All cell lines were grown in DMEM medium supplemented with 10% fetal bovine serum (FBS), 25,000 units penicillin G, 25,000 µg streptomycin, and 131.4 mg L-Glutamine and cultured in the incubator under the condition of 95% air, 5% CO2 at 37°C [33]. Cells were seeded at 2,500 cells/cm^2 into 12-well plates. At 80% confluency, cells were washed with PBS and supplemented with fresh medium containing compound or the topoisomerase I-inhibitor, camptothecin, at 0, 0.1, 0.3, 1, 3, 10, 30, 100, 300 µM. At 24 hours, treatment was terminated by removing the medium from each well. Cells were lysed with cell lysis buffer (600 µl for 30 minutes at 25°C). Cell lysate (200 µl) was centrifuged at 200 g for 10 minutes and 20 µl of each supernatant was assayed for nucleosomes using the Cell Death Detection ELISA (Roche Applied Science) as described by the manufacturer. The percent maximum nucleosome level was calculated by dividing the nucleosome level by the maximum nucleosome level achieved in the assay and multiplying by 100. This value was plotted as a function of the log compound concentration and the best-fitting curve and EC50 value determined using 4-Parameter Logistic Model/Dose Response/XLfit 4.2, IDBS software.
(§2) Figure 5 Apoptosis induction of breast cancer cell lines by compounds; selective apoptosis of cell lines that are Stat3 dependent. MDA-MB-468 (panel A), MDA-MB-231 (panel B), MDA-MB-435 (panel C), MCF7 (panel D) and MDA-MB-453 (panel E) were seeded in 12-well plates, grown overnight then treated with the indicated compound for 24 hr. Cells were centrifuged and the supernatants assayed for nucleosome levels by ELISA. The percent maximum nucleosome level was calculated (nucleosome level ÷ maximum nucleosome level achieved in the assay ×100) and plotted as a function of the log compound concentration. The best-fitting curve was determined using 4-ParameterLogistic Model/Dose Response One Site/XLfit 4.2, IDBS software and was used to determine the EC50 value (Table 3).
(In an ELISA, binding on a coated surface is turned into a signal by an enzyme label.)

For another assay, the system named is MDA-MB-231. The description is as above. Particulars: Homo sapiens, 24 hr, read-out: EC50 apoptosis induction. On the procedure: as §1, §2
The next assay concerns MDA-MB-435. The description is as above. Particulars: Homo sapiens, 24 hr, read-out: EC50 apoptosis induction. How it is done:
as §1, §2

The test system of the next assay is MDA-MB-453. Described as above. The following applies: Homo sapiens, 24 hr, read-out: EC50 apoptosis induction. How it is done:
as §1, §2

The next assay has as its system MDA-MB-468. The description is as above. The following applies: Homo sapiens, 24 hr, read-out: EC50 apoptosis induction. On the procedure: as §1, §2
In assay [1] the test system is breast cancer cell lines with constitutive Stat3 activity—MDA-MB-468, MDA-MB-231 and MDA-MB-435. The experiment in a line: Apoptosis assay, summary over the cell lines with constitutive Stat3 activity. The following applies: Homo sapiens, 24 hr, read-out: EC50 apoptosis induction, range over three cell lines. How it is done:
as §1, with “100.” for “100. This value was plotted as a function of the log compound concentration and the best-fitting curve and EC50 value determined using 4-Parameter Logistic Model/Dose Response/XLfit 4.2, IDBS software.”
as §2, with “MDA-MB-468” for “Figure 5 Apoptosis induction of breast cancer cell lines by compounds; selective apoptosis of cell lines that are Stat3 dependent. MDA-MB-468”

In the case of `O=C(O)c1ccc(C=CC(=O)c2ccc3c(c2)OCCO3)cc1` [Cpd3, 4-[3-(2,3-dihydro-1,4-benzodioxin-6-yl)-3-oxo-1-propen-1-yl]benzoic acid], the concentration for a half-maximal effect (EC50) is > 300 µM with MCF7; 26.9 µM in the assay with MDA-MB-231; 16.5 µM in the assay on MDA-MB-435; > 300 µM in the assay with MDA-MB-453; 2.28 µM in the assay with MDA-MB-468; 2.3 to 26.9 µM in assay [1].
